The text below walks through data of US4727064A, “Pharmaceutical preparations containing cyclodextrin derivatives” (priority 1985, dated 1988).

The nature of one data set: physchem. Particulars: for solubility: water. As for the experimental part: The solutions of solubilizer in water were saturated by stirring with excess of drug at room temperature for about 24 hours. The resulting suspensions were clarified either by filtration through a sintered glass filter or by centrifugation. Concentration of hormones in clarified solutions was measured spectrophotometrically. In these experiments drugs were solubilized with cyclodextrin derivatives with constant degrees of substitution and which are given in the footnote to Table 1.

For data set [1] the following is noted: Table 1, water, cited from earlier work.
The mark [2] stands for this setting: hydroxypropyl-β-cyclodextrin in water, Solubility in solubilizer solution, Table 1, hydroxypropyl-β-cyclodextrin in water, degree of substitution 6-7.
Setting [3] is: hydroxypropyl-β-cyclodextrin in water, Solubility in solubilizer solution.
Setting [4] is: data from K. Uekama, Pharmacology International, 61-65 (1985).
The mark [5] stands for this setting: 50% aqueous carboxamido-β-cyclodextrin, Solubilities of steroids in 50% aqueous solutions of substituted cyclodextrins, Table 3, carboxamido-β-cyclodextrin.
Where [6] appears, read: 50% aqueous carboxymethyl-β-cyclodextrin, Solubilities of steroids in 50% aqueous solutions of substituted cyclodextrins, Table 3, carboxymethyl-β-cyclodextrin.
[7] abbreviates: 50% aqueous diethylaminoethyl-β-cyclodextrin, Solubilities of steroids in 50% aqueous solutions of substituted cyclodextrins, Table 3, diethylaminoethyl-β-cyclodextrin.
Setting [8] is: 50% aqueous hydroxypropyl-beta-cyclodextrin, Solubilities of steroids in 50% aqueous solutions of hydroxypropyl-β-cyclodextrin, Table 2, d.s. 4.7.
Setting [9] is: 50% aqueous hydroxypropyl-beta-cyclodextrin, Solubilities of steroids in 50% aqueous solutions of hydroxypropyl-β-cyclodextrin, Table 2, d.s. 5.7.
The mark [10] stands for this setting: 50% aqueous hydroxypropyl-beta-cyclodextrin, Solubilities of steroids in 50% aqueous solutions of hydroxypropyl-β-cyclodextrin, Table 2, d.s. 7.0.
Where [11] appears, read: 50% aqueous hydroxypropyl-beta-cyclodextrin, Solubilities of steroids in 50% aqueous solutions of hydroxypropyl-β-cyclodextrin, Table 2, d.s. 14.
Where [12] appears, read: data from J. Brotherton, Sex Hormone Pharmacology (1976), p. 36.
The mark [13] stands for this setting: hydroxypropyl-β-cyclodextrin in water, 24 h.

Converted amounts (≈) assume the structure as drawn. Where a name gives a salt, the structure may show the parent alone. Read-outs that look alike come from different tables or passages of the source.

In turn, `CC1=C(/C=C/C(C)=C/C=C/C(C)=C/C(=O)O)C(C)(C)CCC1` [retinoic acid, ethanolamine salt of all trans] registered a solubility at 24 h in the data set “physchem” (40% hydroxypropyl-β-cyclodextrin, 1% ethanolamine, Solubility in solubilizer solution) of 28.4 mg/mL.
Regarding `C[C@@H]1C[C@H]2[C@@H]3CCC4=CC(=O)C=C[C@]4(C)[C@@]3(F)[C@@H](O)C[C@]2(C)[C@@]1(O)C(=O)CO` [dexamethasone], in the data set “physchem” (setting [2]), the solubility at 24 h came to 24 mg/mL (≈ 61.2 mM). Also, the solubility in the data set “physchem” was determined as 0.1 mg/mL (≈ 0.255 mM).
`CN1CCc2cccc3c2[C@H]1Cc1ccc(O)c(O)c1-3` [apomorphine] had a solubility at 24 h in “physchem” (setting [3]) of 116 mg/mL (≈ 434 mM). In addition, the solubility in “physchem” is 20 mg/mL (≈ 74.8 mM).
As to `O=C1NC(=O)C(c2ccccc2)(c2ccccc2)N1` [diphenylhydantoin], in the data set “physchem” (setting [2]), the concentration in solution (solubility at 24 h) was 1.7 mg/mL (≈ 6.74 mM). Besides, the Solubility in water in data set [1] (setting [4]) was 0.03 mg/mL (≈ 0.119 mM).
With `C[C@]12CC[C@H]3[C@@H](CCC4=CC(=O)CC[C@@]43C)[C@@H]1CC[C@@H]2O` [testosterone], the solubility at 24 h in “physchem” (setting [5]) came out at 24 mg/mL (≈ 83.2 mM); in “physchem” (setting [6]), 24 mg/mL (≈ 83.2 mM); in the data set “physchem” (setting [7]) it was 9 mg/mL (≈ 31.2 mM); in the data set “physchem” (setting [8]) it was 56 mg/mL (≈ 194 mM); in “physchem” (setting [9]) it was 62 mg/mL (≈ 215 mM); in “physchem” (setting [10]), 40 mg/mL (≈ 139 mM). The solubility at 24 h in the data set “physchem” (setting [11]) was 23 mg/mL (≈ 79.7 mM); in “physchem” (setting [2]) it was 38 mg/mL (≈ 132 mM). In addition, the Solubility in water in data set [1] (setting [12]) is 0.026 mg/mL (≈ 0.0901 mM).
`NS(=O)(=O)c1cc2c(cc1C(F)(F)F)NCNS2(=O)=O` [hydroflumethiazide] registered a solubility at 24 h in the data set “physchem” (setting [3]) of 9.3 mg/mL (≈ 28.1 mM). Besides, in “physchem”, the solubility stood at 0.3 mg/mL (≈ 0.906 mM).
On to `CC(=O)[C@H]1CC[C@H]2[C@@H]3CCC4=CC(=O)CC[C@]4(C)[C@H]3CC[C@]12C` [progesterone], for which the solubility at 24 h stood at 38 mg/mL (≈ 121 mM) in “physchem” (setting [5]); 14 mg/mL (≈ 44.5 mM) in the data set “physchem” (setting [6]); 18 mg/mL (≈ 57.2 mM) in the data set “physchem” (setting [7]); 30 mg/mL (≈ 95.4 mM) in “physchem” (setting [8]); 44 mg/mL (≈ 140 mM) in “physchem” (setting [9]); 35 mg/mL (≈ 111 mM) in the data set “physchem” (setting [10]). The solubility at 24 h in “physchem” (setting [11]) amounted to 23 mg/mL (≈ 73.1 mM); in “physchem” (setting [2]), 34 mg/mL (≈ 108 mM). For the same compound, the Solubility in water in data set [1] (setting [12]) was 0.015 mg/mL (≈ 0.0477 mM).
`CC1=C(/C=C/C(C)=C/C=C/C(C)=C/C=O)C(C)(C)CCC1` [retinal]: the solubility at 24 h in the data set “physchem” (setting [3]) came out at 2.6 mg/mL (≈ 9.14 mM). Further, in the data set “physchem”, the solubility was below 0.07 mg/mL.
Take `CC1=C(/C=C/C(C)=C/C=C/C(C)=C/C(=O)O)C(C)(C)CCC1` [retinoic acid, sodium salt of all trans]: in “physchem” (setting [13]), the “Solubility in solubilizer solution” value turned out to be 1.6 mg/mL.
`C=C1CC[C@H](O)C/C1=C/C=C1\CCC[C@]2(C)[C@@H]([C@H](C)CCCC(C)C)CC[C@@H]12` [cholecalciferol] had a solubility at 24 h in “physchem” (setting [2]) of 10 mg/mL (≈ 26 mM). This compound also showed a solubility in “physchem” below 0.23 mg/mL.
On to `Cn1c(=O)c2[nH]cnc2n(C)c1=O` [theophylline], for which the concentration in solution in “physchem” (setting [2]) (solubility at 24 h) was 11 mg/mL (≈ 61.1 mM). The compound also gave a solubility in “physchem” of 8.3 mg/mL (≈ 46.1 mM).
Taken in the same sequence, the figures for `C[C@]12CC[C@@H]3c4ccc(O)cc4CC[C@H]3[C@@H]1C[C@@H](O)[C@@H]2O` [estriol] were 41 mg/mL (≈ 142 mM) and below 1.3 mg/mL.
Regarding `CC1=C(/C=C/C(C)=C/C=C/C(C)=C/C(=O)O)C(C)(C)CCC1` [retinoic acid, all trans], in “physchem” (setting [13]), the “Solubility in solubilizer solution” value amounted to 0.8 mg/mL (≈ 2.66 mM). The solubility in “physchem” is below 0.07 mg/mL.
In turn, `C#C[C@]1(O)CC[C@H]2[C@@H]3CCc4cc(OC)ccc4[C@H]3CC[C@@]21C` [ethinylestradiol-3-methyl ether] registered a solubility at 24 h in the data set “physchem” (setting [3]) of 27 mg/mL (≈ 87 mM). In addition, the solubility in “physchem” is below 1.5 mg/mL.
`C#C[C@]1(O)CC[C@H]2[C@@H]3CCC4=CC(=O)CC[C@]4(C)[C@H]3CC[C@@]21C` [ethisterone] registered a solubility at 24 h in the data set “physchem” (setting [2]) of 0.5 mg/mL (≈ 1.6 mM). This compound returned a solubility in “physchem” below 0.2 mg/mL.
As to `O=[N+]([O-])OCC(CO[N+](=O)[O-])O[N+](=O)[O-]` [nitroglycerin], the concentration in solution in the data set “physchem” (setting [2]) (solubility at 24 h) was 10.4 mg/mL (≈ 45.8 mM). This compound also registered a solubility in the data set “physchem” of 1.25 mg/mL (≈ 5.5 mM).
Consider `CC(=O)S[C@@H]1CC2=CC(=O)CC[C@]2(C)[C@H]2CC[C@@]3(C)[C@@H](CC[C@@]34CCC(=O)O4)[C@H]12` [spironolactone], for which the concentration in solution in “physchem” (setting [3]) (solubility at 24 h) came to 42 mg/mL (≈ 101 mM). Moreover, the Solubility in water in data set [1] (setting [4]) is 0.03 mg/mL (≈ 0.072 mM).
As to `Cl.Clc1cccc(Cl)c1NC1=NCCN1` [cloridine hydrochloride], the “Solubility in solubilizer solution” value in the data set “physchem” (Table 1, hydroxypropyl-β-cyclodextrin in water, degree of substitution 6-7, 1440 min) is 83.0 mg/mL.
`CC(C)NNC(=O)c1ccncc1` [iproniazid phosphate] displayed a solubility at 24 h in “physchem” (setting [3]) of 95 mg/mL. Moreover, the solubility in “physchem” amounted to 30 mg/mL.
Compound `CC(=O)Nc1ccc(O)cc1` [acetamidophen] came in with a solubility at 24 h in “physchem” (setting [2]) of 67 mg/mL (≈ 443 mM). Moreover, in the data set “physchem”, the solubility is 11 mg/mL (≈ 72.8 mM).
Taken in the same sequence, the figures for `C[C@]12CCC(=O)C=C1CC[C@@H]1[C@@H]2CC[C@@]2(C)[C@H]1CC[C@]2(C)O` [17-methyltestosterone] were 39 mg/mL (≈ 129 mM) and below 0.17 mg/mL.
For `COc1ccc2c(c1)c(CC(=O)O)c(C)n2C(=O)c1ccc(Cl)cc1` [indomethacin], the solubility at 24 h in the data set “physchem” (setting [2]) came to 4.2 mg/mL (≈ 11.7 mM). Also, the Solubility in water in data set [1] (setting [4]) was 0.02 mg/mL (≈ 0.0559 mM).
On to `Nc1nc2c(ncn2COCCO)c(=O)[nH]1` [acyclovir], for which, in “physchem”, the Solubility in water result is recorded as “insoluble”. Further, the solubility at 24 h in the data set “physchem” (setting [3]) came out at 2.5 mg/mL (≈ 11.1 mM).
`C[C@H]1O[C@@H](O[C@H]2[C@@H](O)C[C@H](O[C@H]3[C@@H](O)C[C@H](O[C@H]4CC[C@@]5(C)[C@H](CC[C@@H]6[C@@H]5C[C@@H](O)[C@]5(C)[C@@H](C7=CC(=O)OC7)CC[C@]65O)C4)O[C@@H]3C)O[C@@H]2C)C[C@H](O)[C@@H]1O` [digoxin] displayed a solubility at 24 h in the data set “physchem” (setting [2]) of 45 mg/mL (≈ 57.6 mM). Further, in data set [1] (setting [4]), the Solubility in water is 0.07 mg/mL (≈ 0.0896 mM).
`Cc1cc(C(C)(C)C)c(O)c(C(C)(C)C)c1` [butylated hydroxytoluene]: the Solubility in water entry in the data set “physchem” (Table 1, water) is “insoluble”. For the same compound, the solubility at 24 h in the data set “physchem” (hydroxypropyl-α-cyclodextrin in water, Solubility in solubilizer solution, Table 1, hydroxypropyl-α-cyclodextrin in water, degree of substitution 6-7) turned out to be 0.3 mg/mL (≈ 1.36 mM); in “physchem” (setting [2]), 3 mg/mL (≈ 13.6 mM); in “physchem” (hydroxypropyl-γ-cyclodextrin in water, Solubility in solubilizer solution, Table 1, hydroxypropyl-γ-cyclodextrin in water, degree of substitution 6-7), 0.2 mg/mL (≈ 0.908 mM).
For `CC1OC(OC2CC(O)C3(CO)C4C(O)CC5(C)C(C6=CC(=O)OC6)CCC5(O)C4CCC3(O)C2)C(O)C(O)C1O` (stereo not shown) [oubain], the solubility at 24 h in the data set “physchem” (setting [2]) worked out at 80 mg/mL (≈ 137 mM). For the same compound, in “physchem”, the solubility came to 13 mg/mL (≈ 22.2 mM).
As for `CC1=C(/C=C/C(C)=C/C=C/C(C)=C/CO)C(C)(C)CCC1` [retinol], the solubility at 24 h in “physchem” (setting [3]) is 5.5 mg/mL (≈ 19.2 mM). Moreover, the solubility in the data set “physchem” is below 0.1 mg/mL.
Taken in the same sequence, the figures for `NS(=O)(=O)c1cc(C2(O)NC(=O)c3ccccc32)ccc1Cl` (stereo not shown) [chlorthalidone] were 10.5 mg/mL (≈ 31 mM) and 0.12 mg/mL (≈ 0.354 mM).
`CC1=C(/C=C/C(C)=C/C=C/C(C)=C/C(=O)O)C(C)(C)CCC1` [retinoic acid, choline salt of all trans]: the “Solubility in solubilizer solution” value in the data set “physchem” (setting [13]) was determined as 18.8 mg/mL.
